Test results reported in patent US20240262826A1, “WILD TYPE KIT INHIBITORS” (Blueprint Medicines Corporation, priority 2022, published 2024).
Each block holds one compound with its values, some of them ahead of it.

How the values were obtained:
wild type c-kit = wild type c-kit (Homo sapiens (Human), UniProt P10721); experiment: PathScan phospho c-kit (Tyr719) sandwich ELISA in SCF-stimulated M-07e cells (pKIT assay); format: cell-based; settings: ELISA assay (values not marked *)
How it was run: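 Serum- and GM-CSF-starved M-07e cells (4 h) pretreated 60 min at 37 °C with an 8-point compound series in duplicate (0.25% DMSO), then stimulated with human SCF (500 ng/mL stock) 10 min at room temperature. Lysate c-kit Tyr719 phosphorylation quantified by sandwich ELISA with TMB read-out; IC50 from 4-parameter logistic fit.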

[1] = target: human P-glycoprotein (P-gp, MDR1) (Homo sapiens (Human), UniProt P08183); experiment: MDCK-MDR1 cell monolayer drug transport assay (P-gp efflux ratio); format: in vitro ADME; settings: pH 7.4, MDCK-MDR1 cells, 1 uM concentration of compound, read-out: Pgp Efflux Ratio, 1 uM
How it was run: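 P-gp substrate potential tested in MDCK-MDR1 monolayers on Transwell supports, cultured 4-8 days; monolayers with TEER <42 ohms·cm2 discarded. Transport run in HBSS (10 mM HEPES, pH 7.4) at 37° C with compound working solution at 1 μM.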

Sequence of human P-glycoprotein (P-gp, MDR1) (P08183 whole entry): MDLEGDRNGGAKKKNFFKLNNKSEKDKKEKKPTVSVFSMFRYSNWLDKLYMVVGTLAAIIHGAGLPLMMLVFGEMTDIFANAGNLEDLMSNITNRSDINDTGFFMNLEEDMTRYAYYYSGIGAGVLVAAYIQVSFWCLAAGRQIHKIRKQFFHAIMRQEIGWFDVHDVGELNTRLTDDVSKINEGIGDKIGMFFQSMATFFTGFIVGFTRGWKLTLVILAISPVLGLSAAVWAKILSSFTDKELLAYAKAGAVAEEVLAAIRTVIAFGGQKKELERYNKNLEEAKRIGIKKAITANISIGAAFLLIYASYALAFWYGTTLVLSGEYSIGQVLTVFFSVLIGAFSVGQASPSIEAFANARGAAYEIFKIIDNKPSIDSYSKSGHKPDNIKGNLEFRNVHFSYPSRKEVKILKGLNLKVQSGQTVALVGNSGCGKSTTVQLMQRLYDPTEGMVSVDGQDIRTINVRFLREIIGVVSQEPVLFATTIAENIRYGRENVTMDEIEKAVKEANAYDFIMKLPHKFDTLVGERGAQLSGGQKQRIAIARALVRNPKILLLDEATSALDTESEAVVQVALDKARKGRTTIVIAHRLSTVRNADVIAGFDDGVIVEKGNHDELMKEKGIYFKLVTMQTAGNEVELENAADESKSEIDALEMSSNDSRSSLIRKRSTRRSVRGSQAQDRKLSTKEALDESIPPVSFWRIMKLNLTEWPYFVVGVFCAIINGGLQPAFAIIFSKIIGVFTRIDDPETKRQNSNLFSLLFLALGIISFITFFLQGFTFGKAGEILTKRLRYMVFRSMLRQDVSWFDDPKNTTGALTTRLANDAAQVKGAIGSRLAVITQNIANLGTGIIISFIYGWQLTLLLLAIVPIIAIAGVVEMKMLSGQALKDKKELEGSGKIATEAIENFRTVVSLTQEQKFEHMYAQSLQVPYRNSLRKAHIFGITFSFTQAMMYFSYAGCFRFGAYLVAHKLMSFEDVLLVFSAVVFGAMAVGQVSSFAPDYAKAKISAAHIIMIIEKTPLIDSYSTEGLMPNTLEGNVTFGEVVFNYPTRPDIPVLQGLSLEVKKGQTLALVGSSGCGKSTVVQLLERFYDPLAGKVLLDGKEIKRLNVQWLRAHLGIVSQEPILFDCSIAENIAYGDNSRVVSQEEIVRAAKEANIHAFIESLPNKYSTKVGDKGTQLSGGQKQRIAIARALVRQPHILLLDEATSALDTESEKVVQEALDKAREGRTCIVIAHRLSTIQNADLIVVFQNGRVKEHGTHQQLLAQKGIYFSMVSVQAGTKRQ
Sequence of wild type c-kit (P10721 26-976): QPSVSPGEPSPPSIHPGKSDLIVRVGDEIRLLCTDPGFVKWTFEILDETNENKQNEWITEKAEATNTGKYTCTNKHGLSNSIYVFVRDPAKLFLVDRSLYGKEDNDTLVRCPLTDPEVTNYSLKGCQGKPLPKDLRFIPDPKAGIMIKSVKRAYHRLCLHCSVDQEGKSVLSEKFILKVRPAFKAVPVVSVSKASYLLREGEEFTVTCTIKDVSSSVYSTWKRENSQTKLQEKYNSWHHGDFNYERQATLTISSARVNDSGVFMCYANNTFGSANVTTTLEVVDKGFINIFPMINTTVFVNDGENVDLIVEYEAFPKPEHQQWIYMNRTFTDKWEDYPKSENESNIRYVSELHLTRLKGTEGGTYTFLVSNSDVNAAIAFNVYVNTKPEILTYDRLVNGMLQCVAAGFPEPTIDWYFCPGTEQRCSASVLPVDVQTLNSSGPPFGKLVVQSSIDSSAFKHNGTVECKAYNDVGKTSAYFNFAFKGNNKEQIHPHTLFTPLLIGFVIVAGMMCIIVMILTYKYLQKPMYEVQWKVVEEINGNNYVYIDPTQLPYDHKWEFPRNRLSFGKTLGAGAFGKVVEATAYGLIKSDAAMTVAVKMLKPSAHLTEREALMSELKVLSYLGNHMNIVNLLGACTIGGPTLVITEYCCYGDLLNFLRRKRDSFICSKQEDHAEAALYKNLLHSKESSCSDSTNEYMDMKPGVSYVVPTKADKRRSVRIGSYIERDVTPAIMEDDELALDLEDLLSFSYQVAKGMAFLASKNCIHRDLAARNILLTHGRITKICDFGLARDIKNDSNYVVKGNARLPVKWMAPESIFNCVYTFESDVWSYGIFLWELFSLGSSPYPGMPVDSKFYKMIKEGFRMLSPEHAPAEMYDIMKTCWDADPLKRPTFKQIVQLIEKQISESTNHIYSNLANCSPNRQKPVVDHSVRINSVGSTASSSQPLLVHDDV

Compound: COC(=O)N1CC(n2nnc(-c3ccc(C)c(NC(=O)c4cnn5ccc(N6CCN(C)CC6)cc45)c3)n2)C1 [Example 66, methyl 3-(5-(4-methyl-3-(5-(4-methylpiperazin-1-yl)pyrazolo[1,5-a]pyridine-3-carboxamido)phenyl)-2H-tetrazol-2-yl)azetidine-1-carboxylate]
- IC50 (wild type c-kit): 64.9 nM
- efflux ratio at 2 h, 1 µM [1]: 13.5

Compound: COC(=O)N1CC(n2nnc(-c3ccc(C)c(NC(=O)c4cnn5ccc(NC[C@H](C)O)cc45)c3)n2)C1 [Example 94, methyl (S)-3-(5-(3-(5-((2-hydroxypropyl)amino)pyrazolo[1,5-a]pyridine-3-carboxamido)-4-methylphenyl)-2H-tetrazol-2-yl)azetidine-1-carboxylate]
- IC50 (wild type c-kit): 131 nM
- efflux ratio at 2 h, 1 µM [1]: 22.3

Compound: Cc1ccc(-c2nnn(C3CC(F)(F)C3)n2)cc1NC(=O)c1cnn2ccc(N3CC[C@@H](O)C3)cc12 [Example 78, (R)-N-(5-(2-(3,3-difluorocyclobutyl)-2H-tetrazol-5-yl)-2-methylphenyl)-5-(3-hydroxypyrrolidin-1-yl)pyrazolo[1,5-a]pyridine-3-carboxamide]
- IC50 (wild type c-kit): 9.6 nM
- efflux ratio at 2 h, 1 µM [1]: 13.1

Compound: COCCNc1ccn2ncc(C(=O)Nc3cc(-c4nnn([C@H]5C[C@H](CO)C5)n4)c(F)cc3C)c2c1 [Example 202, N-(4-fluoro-5-(2-((1r,3r)-3-(hydroxymethyl)cyclobutyl)-2H-tetrazol-5-yl)-2-methylphenyl)-5-((2-methoxyethyl)amino)pyrazolo[1,5-a]pyridine-3-carboxamide]
- IC50 (wild type c-kit): 14.8 nM
- efflux ratio at 2 h, 1 µM [1]: 19.1

Compound: COC(=O)N1CC(n2nnc(-c3ccc(C)c(NC(=O)c4cnn5ccc(NCC(C)(C)OC)cc45)c3)n2)C1 [Example 96, methyl 3-(5-(3-(5-((2-methoxy-2-methylpropyl)amino)pyrazolo[1,5-a]pyridine-3-carboxamido)-4-methylphenyl)-2H-tetrazol-2-yl)azetidine-1-carboxylate]
- IC50 (wild type c-kit): 37.1 nM
- efflux ratio at 2 h, 1 µM [1]: 9.5

Compound: COC(=O)N1CC(c2cnn(-c3ccc(C)c(NC(=O)c4cnn5ccc(NCC6COC6)cc45)c3)n2)C1 [Example 140, methyl 3-(2-(4-methyl-3-(5-((oxetan-3-ylmethyl)amino)pyrazolo[1,5-a]pyridine-3-carboxamido)phenyl)-2H-1,2,3-triazol-4-yl)azetidine-1-carboxylate]
- IC50 (wild type c-kit): 24.1 nM
- efflux ratio at 2 h, 1 µM [1]: 72.2

Compound: Cc1ccc(-c2nnn(C)n2)cc1NC(=O)c1cnn2ccc(-c3cnn(CCO)c3)cc12 [Example 47, 5-(1-(2-hydroxyethyl)-1H-pyrazol-4-yl)-N-(2-methyl-5-(2-methyl-2H-tetrazol-5-yl)phenyl)pyrazolo[1,5-a]pyridine-3-carboxamide]
- IC50 (wild type c-kit): 9.8 nM
- efflux ratio at 2 h, 1 µM [1]: 16

Compound: CCOC(=O)N1CC(n2nnc(-c3ccc(C)c(NC(=O)c4cnn5ccc(NCCOC)cc45)c3)n2)C1 [Example 149, ethyl 3-(5-(3-(5-((2-methoxyethyl)amino)pyrazolo[1,5-a]pyridine-3-carboxamido)-4-methylphenyl)-2H-tetrazol-2-yl)azetidine-1-carboxylate]
- IC50 (wild type c-kit): 38.6 nM
- efflux ratio at 2 h, 1 µM [1]: 30.1

Compound: COCCNc1ccn2ncc(C(=O)Nc3cc(-c4nnn(C5CN(C(=O)OC)C5)n4)c(F)cc3C)c2c1 [Example 114, methyl 3-(5-(2-fluoro-5-(5-((2-methoxyethyl)amino)pyrazolo[1,5-a]pyridine-3-carboxamido)-4-methylphenyl)-2H-tetrazol-2-yl)azetidine-1-carboxylate]
- IC50 (wild type c-kit): 31.3 nM
- efflux ratio at 2 h, 1 µM [1]: 14.6

Compound: COC(=O)N1CC(c2cnn(-c3ccc(C)c(NC(=O)c4cnn5ccc(N(C)CCO)cc45)c3)n2)C1 [Example 84, methyl 3-(2-(3-(5-((2-hydroxyethyl)(methyl)amino)pyrazolo[1,5-a]pyridine-3-carboxamido)-4-methylphenyl)-2H-1,2,3-triazol-4-yl)azetidine-1-carboxylate]
- IC50 (wild type c-kit): 21.9 nM
- efflux ratio at 2 h, 1 µM [1]: 51.9

Compound: COC(=O)N1CC(n2nnc(-c3ccc(C)c(NC(=O)c4cnn5ccc(N6CCOCC6)cc45)c3)n2)C1 [Example 69, methyl 3-(5-(4-methyl-3-(5-morpholinopyrazolo[1,5-a]pyridine-3-carboxamido)phenyl)-2H-tetrazol-2-yl)azetidine-1-carboxylate]
- IC50 (wild type c-kit): 50.1 nM
- efflux ratio at 2 h, 1 µM [1]: 11.7

Now those with a lower IC50 (wild type c-kit), led by results:

- IC50 (wild type c-kit): 4.1 nM
- efflux ratio at 2 h, 1 µM [1]: 35.9
Compound: Cc1ccc(-c2nnn([C@H]3C[C@@H](C(F)(F)F)C3)n2)cc1NC(=O)c1cnn2ccc(NCCO)cc12 [Example 120, 5-((2-hydroxyethyl)amino)-N-(2-methyl-5-(2-((1s,3s)-3-(trifluoromethyl)cyclobutyl)-2H-tetrazol-5-yl)phenyl)pyrazolo[1,5-a]pyridine-3-carboxamide or 5-((2-hydroxyethyl)amino)-N-(2-methyl-5-(2-((1r,3r)-3-(trifluoromethyl)cyclobutyl)-2H-tetrazol-5-yl)phenyl)pyrazolo[1,5-a]pyridine-3-carboxamide]

- IC50 (wild type c-kit): 0.6 nM
- efflux ratio at 2 h, 1 µM [1]: 12.8
Compound: Cc1ccc(-c2nnn([C@H]3C[C@@H](C(F)(F)F)C3)n2)cc1NC(=O)c1cnn2ccc(N3CCC(C)(O)CC3)cc12 [Example 122, 5-(4-hydroxy-4-methylpiperidin-1-yl)-N-(2-methyl-5-(2-((1s,3s)-3-(trifluoromethyl)cyclobutyl)-2H-tetrazol-5-yl)phenyl)pyrazolo[1,5-a]pyridine-3-carboxamide or 5-(4-hydroxy-4-methylpiperidin-1-yl)-N-(2-methyl-5-(2-((1r,3r)-3-(trifluoromethyl)cyclobutyl)-2H-tetrazol-5-yl)phenyl)pyrazolo[1,5-a]pyridine-3-carboxamide]

- IC50 (wild type c-kit): 6.1 nM
- efflux ratio at 2 h, 1 µM [1]: 11
Compound: Cc1ccc(-c2nnn(C3CC(F)(F)C3)n2)cc1NC(=O)c1cnn2ccc(N3CC[C@H](O)C3)cc12 [Example 62, (S)-N-(5-(2-(3,3-difluorocyclobutyl)-2H-tetrazol-5-yl)-2-methylphenyl)-5-(3-hydroxypyrrolidin-1-yl)pyrazolo[1,5-a]pyridine-3-carboxamide]

- IC50 (wild type c-kit): 0.7 nM
- efflux ratio at 2 h, 1 µM [1]: 5.9
Compound: Cc1ccc(-n2nnc(C3CC3)n2)cc1NC(=O)c1cnn2ccc(-c3cnn(CCO)c3)cc12 [Example 52, N-(5-(5-cyclopropyl-2H-tetrazol-2-yl)-2-methylphenyl)-5-(1-(2-hydroxyethyl)-1H-pyrazol-4-yl)pyrazolo[1,5-a]pyridine-3-carboxamide]

- IC50 (wild type c-kit): 7.6 nM
- efflux ratio at 2 h, 1 µM [1]: 36.4
Compound: COC(=O)N1CC(c2cnn(-c3ccc(C)c(NC(=O)c4cnn5ccc(NC6COC6)cc45)c3)n2)C1 [Example 141, methyl 3-(2-(4-methyl-3-(5-(oxetan-3-ylamino)pyrazolo[1,5-a]pyridine-3-carboxamido)phenyl)-2H-1,2,3-triazol-4-yl)azetidine-1-carboxylate]

- IC50 (wild type c-kit): 1.4 nM
- efflux ratio at 2 h, 1 µM [1]: 8.4
Compound: Cc1ccc(-c2nnn(C)n2)cc1NC(=O)c1cnn2ccc(-c3cnn(C[C@H](C)O)c3)cc12 (single isomer, unassigned) [Example 54, (S)-5-(1-(2-hydroxypropyl)-1H-pyrazol-4-yl)-N-(2-methyl-5-(2-methyl-2H-tetrazol-5-yl)phenyl)pyrazolo[1,5-a]pyridine-3-carboxamide or (R)-5-(1-(2-hydroxypropyl)-1H-pyrazol-4-yl)-N-(2-methyl-5-(2-methyl-2H-tetrazol-5-yl)phenyl)pyrazolo[1,5-a]pyridine-3-carboxamide]

- IC50 (wild type c-kit): 1.4 nM
- efflux ratio at 2 h, 1 µM [1]: 16.2
Compound: Cc1cc(F)c(-c2nnn(C3CC3)n2)cc1NC(=O)c1cnn2ccc(-c3cnn(CC(C)(C)O)c3)cc12 [Example 207, N-(5-(2-cyclopropyl-2H-tetrazol-5-yl)-4-fluoro-2-methylphenyl)-5-(1-(2-hydroxy-2-methylpropyl)-1H-pyrazol-4-yl)pyrazolo[1,5-a]pyridine-3-carboxamide]

- IC50 (wild type c-kit): 9.2 nM
- efflux ratio at 2 h, 1 µM [1]: 3.2
Compound: Cc1cc(Cl)c(-c2nnn(C3CC(F)(F)C3)n2)cc1NC(=O)c1cnn2ccc(N3CCOCC3)cc12 [Example 168, N-(4-chloro-5-(2-(3,3-difluorocyclobutyl)-2H-tetrazol-5-yl)-2-methylphenyl)-5-morpholinopyrazolo[1,5-a]pyridine-3-carboxamide]

- IC50 (wild type c-kit): 6.4 nM
- efflux ratio at 2 h, 1 µM [1]: 5.9
Compound: COCCNc1ccc2c(C(=O)Nc3cc(-c4nnn(C5CN(C(=O)OC)C5)n4)ccc3Cl)cnn2c1 [Example 157, methyl 3-(5-(4-chloro-3-(6-((2-methoxyethyl)amino)pyrazolo[1,5-a]pyridine-3-carboxamido)phenyl)-2H-tetrazol-2-yl)azetidine-1-carboxylate]

- IC50 (wild type c-kit): 1.4 nM
- efflux ratio at 2 h, 1 µM [1]: 2.9
Compound: COC[C@](C)(O)Cn1cc(-c2ccn3ncc(C(=O)Nc4cc(-c5nnn(C6CC6)n5)ccc4C)c3c2)cn1 (single isomer, unassigned) [Example 267, (R)-N-(5-(2-cyclopropyl-2H-tetrazol-5-yl)-2-methylphenyl)-5-(1-(2-hydroxy-3-methoxy-2-methylpropyl)-1H-pyrazol-4-yl)pyrazolo[1,5-a]pyridine-3-carboxamide or (S)-N-(5-(2-cyclopropyl-2H-tetrazol-5-yl)-2-methylphenyl)-5-(1-(2-hydroxy-3-methoxy-2-methylpropyl)-1H-pyrazol-4-yl)pyrazolo[1,5-a]pyridine-3-carboxamide]

- IC50 (wild type c-kit): 0.8 nM
- efflux ratio at 2 h, 1 µM [1]: 116
Compound: Cc1nnn(-c2ccc(C)c(NC(=O)c3cnn4ccc(-c5cn(C[C@H]6CNCCO6)nc5C)cc34)c2)n1 [Example 230, (R)-5-(3-methyl-1-(morpholin-2-ylmethyl)-1H-pyrazol-4-yl)-N-(2-methyl-5-(5-methyl-2H-tetrazol-2-yl)phenyl)pyrazolo[1,5-a]pyridine-3-carboxamide]
